Reference: PMC4779441 (International journal of peptide research and therapeutics, 2015)

Tested on: HCT-116 cells
Test: In vitro cells' growth inhibition assay
Details: Homo sapiens, HCT-116, 48 h, read-out: EC50 [µM] HCT-116

Structure (SMILES): CC(=O)O[C@@]12CO[C@@H]1C[C@H](O)[C@@]1(C)C(=O)[C@H](O)C3=C(C)[C@@H](OC(=O)[C@H](O)[C@@H](NC(=O)OC(C)(C)C)c4ccccc4)C[C@@](O)([C@@H](OC(=O)c4ccccc4)[C@H]21)C3(C)C [DTX, Docetaxel]
- EC50: 74.5 ± 3.7 µM
